Data on 6 molecules can be found in patent US8871753B2, “Macrocyclic compounds and their use as kinase inhibitors” (Incyte Corporation, priority 2008, dated 2014).

Format in all cases: biochemical
The target of assay [1] is T1, human JAK1 (a.a. 837-1142) (Homo sapiens, UniProt P23458).
T1 construct: human JAK1 (a.a. 837-1142); His tag (N); made in house; host or cells: insect cells (baculovirus)
The experiment in a line: In vitro JAK kinase assay (HTRF, phosphorylation of a biotinylated peptide), JAK1. The conditions noted are these: read-out: JAK1 IC50. Summed up: (§1)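 Phosphorylation of a biotinylated peptide by the JAK kinase domain, detected by HTRF with Eu-Py20 and SA-APC. ATP was 90 μM for JAK1, 30 μM for JAK2 and 3 μM for JAK3. Reactions ran 1 h at room temperature and were stopped with EDTA, followed by 40 min antibody binding.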

The target of assay [2] is T2, human JAK3 (a.a. 781-1124) (Homo sapiens, UniProt P52333).
T2 construct: JAK3 (a.a. 781-1124); His tag (N); made in house; host or cells: insect cells (baculovirus)
Kind of assay: In vitro JAK kinase assay (HTRF, phosphorylation of a biotinylated peptide), JAK3. Put shortly:
as §1
For orientation: Time-resolved FRET reads energy transfer from a long-lived donor to a nearby acceptor.

The target in assay [3] is T3, human JAK2 (a.a. 828-1132) (Homo sapiens, UniProt O60674).
T3 construct: JAK2 (a.a. 828-1132); His tag (N); made in house; host or cells: insect cells (baculovirus)
The experiment in a line: In vitro JAK kinase assay (HTRF, phosphorylation of a biotinylated peptide), JAK2. Summed up:
as §1

The target in assay [4] is T4, Recombinant Human Anaplastic Lymphoma Kinase (Homo sapiens, UniProt Q9UM73).
T4 construct: purchased Invitrogen, Carlsbad, Calif
Kind of assay: ALK HTRF kinase assay. Summed up: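 IC50 was obtained from a logistic fit of signal versus log inhibitor concentration, using pre- and post-transition baselines and a Hill slope. The signal reported tyrosine phosphorylation of a biotinylated peptide by recombinant human kinase, detected as Eu-to-APC energy transfer.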

For another assay, the target named is TYK2 (Homo sapiens, UniProt P29597). Kind of assay: TYK2 kinase inhibition (Table A1).
Setting [5] is: method AA1 (90 μM ATP) or AA2 (1000 μM ATP), not stated per value.
Setting [6] is: method AA1 (3 μM ATP) or AA2 (1000 μM ATP), not stated per value.
[7] abbreviates: method AA1 (30 μM ATP) or AA2 (1000 μM ATP), not stated per value.
The mark [8] stands for this setting: compound at 500 nM or 1 mM, 90 μM ATP.

Where a name gives a salt, the structure may show the parent alone. Read-outs that look alike come from different tables or passages of the source.

TYK2, sequence (P29597 whole entry): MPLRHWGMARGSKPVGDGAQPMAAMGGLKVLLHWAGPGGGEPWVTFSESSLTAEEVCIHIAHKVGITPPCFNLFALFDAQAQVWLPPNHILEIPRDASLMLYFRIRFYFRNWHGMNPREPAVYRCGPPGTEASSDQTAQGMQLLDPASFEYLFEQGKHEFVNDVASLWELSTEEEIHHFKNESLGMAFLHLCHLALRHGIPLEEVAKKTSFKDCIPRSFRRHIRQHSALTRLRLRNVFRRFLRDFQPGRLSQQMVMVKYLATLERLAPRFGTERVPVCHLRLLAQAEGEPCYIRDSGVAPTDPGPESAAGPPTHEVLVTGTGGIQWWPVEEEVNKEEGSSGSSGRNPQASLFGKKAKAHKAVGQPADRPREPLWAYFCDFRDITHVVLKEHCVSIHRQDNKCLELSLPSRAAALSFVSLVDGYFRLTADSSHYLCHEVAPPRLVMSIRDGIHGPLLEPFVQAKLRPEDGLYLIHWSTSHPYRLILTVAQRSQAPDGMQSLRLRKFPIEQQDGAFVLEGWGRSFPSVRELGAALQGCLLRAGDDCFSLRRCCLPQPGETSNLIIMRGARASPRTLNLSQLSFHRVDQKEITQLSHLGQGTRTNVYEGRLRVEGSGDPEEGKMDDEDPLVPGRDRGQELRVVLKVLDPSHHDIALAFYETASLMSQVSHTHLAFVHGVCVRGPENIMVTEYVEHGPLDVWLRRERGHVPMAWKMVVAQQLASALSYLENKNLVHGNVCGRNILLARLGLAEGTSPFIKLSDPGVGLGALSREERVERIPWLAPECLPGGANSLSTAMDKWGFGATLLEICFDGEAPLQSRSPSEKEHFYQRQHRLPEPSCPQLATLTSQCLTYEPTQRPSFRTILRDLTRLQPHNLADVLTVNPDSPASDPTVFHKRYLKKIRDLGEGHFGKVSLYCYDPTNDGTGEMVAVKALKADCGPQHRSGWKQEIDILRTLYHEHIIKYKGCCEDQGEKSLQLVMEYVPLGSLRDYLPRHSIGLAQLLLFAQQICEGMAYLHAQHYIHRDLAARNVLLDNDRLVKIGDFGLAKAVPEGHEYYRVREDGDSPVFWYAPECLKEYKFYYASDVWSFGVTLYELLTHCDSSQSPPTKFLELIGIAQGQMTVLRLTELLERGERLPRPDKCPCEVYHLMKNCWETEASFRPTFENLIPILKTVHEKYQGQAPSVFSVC
T1 sequence (P23458 849-1154): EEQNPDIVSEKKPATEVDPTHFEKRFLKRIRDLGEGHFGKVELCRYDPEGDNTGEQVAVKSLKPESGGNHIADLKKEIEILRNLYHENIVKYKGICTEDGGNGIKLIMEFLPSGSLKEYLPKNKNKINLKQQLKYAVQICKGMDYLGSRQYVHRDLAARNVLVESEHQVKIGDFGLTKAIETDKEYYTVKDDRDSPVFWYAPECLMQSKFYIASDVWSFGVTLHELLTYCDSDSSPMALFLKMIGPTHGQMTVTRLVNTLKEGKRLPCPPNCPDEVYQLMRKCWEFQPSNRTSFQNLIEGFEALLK
T4 sequence (Q9UM73 19-1620): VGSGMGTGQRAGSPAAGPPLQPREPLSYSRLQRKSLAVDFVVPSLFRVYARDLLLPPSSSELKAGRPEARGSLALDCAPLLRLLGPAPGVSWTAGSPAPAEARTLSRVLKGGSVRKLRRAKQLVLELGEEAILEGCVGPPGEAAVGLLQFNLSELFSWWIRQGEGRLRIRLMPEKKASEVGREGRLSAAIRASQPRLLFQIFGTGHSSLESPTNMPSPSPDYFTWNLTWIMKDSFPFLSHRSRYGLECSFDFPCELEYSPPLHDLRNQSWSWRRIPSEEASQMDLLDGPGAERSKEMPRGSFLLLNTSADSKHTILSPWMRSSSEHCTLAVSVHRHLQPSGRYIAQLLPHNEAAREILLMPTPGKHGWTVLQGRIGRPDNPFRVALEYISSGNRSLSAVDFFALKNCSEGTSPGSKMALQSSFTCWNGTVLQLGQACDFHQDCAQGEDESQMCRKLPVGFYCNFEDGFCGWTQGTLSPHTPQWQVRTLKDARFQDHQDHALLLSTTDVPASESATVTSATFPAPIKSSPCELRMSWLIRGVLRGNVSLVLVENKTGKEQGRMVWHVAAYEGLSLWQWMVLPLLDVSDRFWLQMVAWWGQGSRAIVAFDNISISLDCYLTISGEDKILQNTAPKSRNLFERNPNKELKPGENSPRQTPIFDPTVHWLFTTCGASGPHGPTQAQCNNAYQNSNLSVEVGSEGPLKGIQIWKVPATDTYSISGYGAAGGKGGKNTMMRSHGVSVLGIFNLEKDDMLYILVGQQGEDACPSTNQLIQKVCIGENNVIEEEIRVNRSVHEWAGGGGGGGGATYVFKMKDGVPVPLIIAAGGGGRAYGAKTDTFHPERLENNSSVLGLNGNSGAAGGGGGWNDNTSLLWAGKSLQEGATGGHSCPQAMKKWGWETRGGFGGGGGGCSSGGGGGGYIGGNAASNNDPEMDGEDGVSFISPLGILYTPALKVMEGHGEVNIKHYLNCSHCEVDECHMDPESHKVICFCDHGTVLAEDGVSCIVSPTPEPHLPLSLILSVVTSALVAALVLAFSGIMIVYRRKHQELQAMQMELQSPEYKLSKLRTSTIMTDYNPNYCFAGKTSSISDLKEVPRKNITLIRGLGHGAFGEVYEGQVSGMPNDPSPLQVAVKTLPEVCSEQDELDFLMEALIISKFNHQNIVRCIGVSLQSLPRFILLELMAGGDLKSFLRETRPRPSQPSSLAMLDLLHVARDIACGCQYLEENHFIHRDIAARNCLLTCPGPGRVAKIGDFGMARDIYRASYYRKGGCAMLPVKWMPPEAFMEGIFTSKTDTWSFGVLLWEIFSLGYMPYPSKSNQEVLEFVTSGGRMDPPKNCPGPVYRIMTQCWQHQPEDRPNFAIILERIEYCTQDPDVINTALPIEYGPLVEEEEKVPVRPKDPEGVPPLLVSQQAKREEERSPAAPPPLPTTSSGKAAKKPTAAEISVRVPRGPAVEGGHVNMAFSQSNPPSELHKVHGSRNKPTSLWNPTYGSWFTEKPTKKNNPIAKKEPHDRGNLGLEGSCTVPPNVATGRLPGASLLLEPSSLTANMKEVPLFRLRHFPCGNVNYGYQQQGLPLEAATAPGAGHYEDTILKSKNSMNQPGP
T3 sequence (O60674 828-1132): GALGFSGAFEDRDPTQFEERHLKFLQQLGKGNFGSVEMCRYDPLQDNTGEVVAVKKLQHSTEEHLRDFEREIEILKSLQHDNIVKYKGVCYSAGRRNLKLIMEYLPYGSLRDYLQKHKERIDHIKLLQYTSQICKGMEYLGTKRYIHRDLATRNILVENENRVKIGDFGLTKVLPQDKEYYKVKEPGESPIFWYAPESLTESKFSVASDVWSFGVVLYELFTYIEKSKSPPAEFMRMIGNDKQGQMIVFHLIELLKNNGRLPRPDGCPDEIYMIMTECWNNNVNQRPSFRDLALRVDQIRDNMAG
T2 sequence (P52333 781-1124): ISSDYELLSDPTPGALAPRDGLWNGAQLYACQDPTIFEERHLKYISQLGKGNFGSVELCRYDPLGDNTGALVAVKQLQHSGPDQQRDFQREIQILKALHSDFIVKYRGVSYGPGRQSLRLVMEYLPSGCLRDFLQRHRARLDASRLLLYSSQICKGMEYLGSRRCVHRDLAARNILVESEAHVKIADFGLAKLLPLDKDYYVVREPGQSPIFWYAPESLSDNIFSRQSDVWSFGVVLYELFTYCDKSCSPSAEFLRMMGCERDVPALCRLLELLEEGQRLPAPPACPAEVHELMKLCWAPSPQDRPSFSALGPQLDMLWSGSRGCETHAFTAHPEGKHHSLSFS

Take `N#Cc1c(Cl)cncc1N1CCC(CC(=O)Nc2ccc3cc2CCc2cncc(c2)Nc2ncc(Cl)c(n2)N3)CC1` [Example A240, 2-[1-(5-Chloro-4-cyanopyridin-3-yl)piperidin-4-yl]-N-[6-chloro-2,4,8,18,22-pentaazatetracyclo[14.3.1.1(3,7).1(9,13)]docosa-1(20),3(22),4,6,9(21),10,12,16,18-nonaen-12-yl]acetamide tris(trifluoroacetate)]: the IC50 was 1.5 nM in assay [1] (setting [5]), above 400 nM in assay [2] (setting [6]), 80 nM in assay [3] (setting [7]) and 244 nM against TYK2. In addition, the “ALK % of inhibition at a concentration of 500 nM or 1 mM” value (“ALK % of inhibition” for short) in assay [4] (setting [8]) is 29%.

Turning to `O=C(Nc1ccc2cc1CCc1cccc(c1)Nc1ncc(Cl)c(n1)N2)C1CCCN(C(=O)NC2CCCC2)C1` (stereo not drawn) [Example A62, N(3)-[6-Chloro-2,4,8,22-tetraazatetracyclo[14.3.1.1(3,7).1(9,13)]docosa-1(20),3(22),4,6,9(21),10,12,16,18-nonaen-12-yl]-N(1)-cyclopentylpiperidine-1,3-dicarboxamide trifluoroacetate], the half-maximal inhibitory concentration (IC50) in assay [1] (setting [5]) is 7 nM; in assay [2] (setting [6]), 9.1 nM; in assay [3] (setting [7]) it was 5.6 nM; at TYK2, 12 nM. For the same molecule, the “ALK % of inhibition” value in assay [4] (setting [8]) is reported as 26%.

Regarding `N#Cc1ccc(NC(=O)N2CCN(C(=O)COc3ccc4cc3CCc3cccc(c3)Nc3ncc(Cl)c(n3)N4)CC2)cc1` [Example A9, 4-({[6-Chloro-2,4,8,22-tetraazatetracyclo[14.3.1.1(3,7).1(9,13)]docosa-1(20),3(22),4,6,9(21),10,12,16,18-nonaen-12-yl]oxy}acetyl)-N-(4-cyanophenyl)piperazine-1-carboxamide trifluoroacetate], the half-inhibitory concentration (IC50) in assay [1] (setting [5]) amounted to 9.1 nM; in assay [2] (setting [6]), 67 nM; in assay [3] (setting [7]), 19 nM; against TYK2, 22 nM. For the same molecule, in assay [4] (setting [8]), the “ALK % of inhibition” value turned out to be 0%.

As for `N#Cc1ccc(NC(=O)N2CCC(CC(=O)Nc3ccc4cc3CCc3cncc(c3)Nc3ncc(Cl)c(n3)N4)CC2)cc1` [Example A143, 4-(2-{[6-Chloro-2,4,8,18,22-pentaazatetracyclo[14.3.1.1(3,7).1(9,13)]docosa-1(20),3(22),4,6,9(21),10,12,16,18-nonaen-12-yl]amino}-2-oxoethyl)-N-(4-cyanophenyl)piperidine-1-carboxamide bis(trifluoroacetate)], the IC50 in assay [1] (setting [5]) is 2.2 nM; in assay [2] (setting [6]), above 100 nM; in assay [3] (setting [7]), 1.8 nM; against TYK2, 1.2 nM. The “ALK % of inhibition” value in assay [4] (setting [8]) turned out to be 63%.

For `O=C(Nc1ccc2cc1CCc1cccc(c1)Nc1ncc(Cl)c(n1)N2)c1ccc(Cl)nc1` [Example B69, 6-Chloro-N-[6-chloro-2,4,8,22-tetraazatetracyclo[14.3.1.1(3,7).1(9,13)]docosa-1(20),3(22),4,6,9(21),10,12,16,18-nonaen-12-yl]nicotinamide bis(trifluoroacetate)], the half-inhibitory concentration (IC50) in assay [1] (Table B1) was found to be 0.45 nM; in assay [2] (Table B1), 3.6 nM; in assay [3] (Table B1), 0.6 nM; against TYK2 (Table B1), 2.3 nM. The “ALK % of inhibition” value in assay [4] (compound at a concentration of 500 nM or 1 mM (not specified), cells shown as percentage) was 68%.

Turning to `O=C(Cc1ccccc1)Nc1ccc2cc1CCc1cccc(c1)Nc1ncc(Cl)c(n1)N2` [Example B32, N-[6-Chloro-2,4,8,22-tetraazatetracyclo[14.3.1.1(3,7).1(9,13)]docosa-1(20), 3(22),4,6,9(21),10,12,16,18-nonaen-12-yl]-2-phenylacetamide trifluoroacetate], the IC50 in assay [1] (Table B1) amounted to 2.8 nM; in assay [2] (Table B1), 5.5 nM; in assay [3] (Table B1), 1.6 nM; in assay [4] (Table B1, cells without percent sign), 940 nM; on TYK2 (Table B1) it was 2.7 nM.

For orientation: IC50 means the concentration that gives 50% inhibition.
